In ChEMBL document CHEMBL1201862, “PubChem BioAssay data set” (2004):
Calls of active or inactive are those of the source.

Key:
[1] = test system: HEK293; test: inhibitors of LMP1-driven NF-kB reporter, dose response, cell-based, HEK293, luciferase, cherry-pick (AID 588343); assay type: functional; details: Homo sapiens
[2] = target: T1, Cytochrome P450 1A2 (Homo sapiens, UniProt P05177);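 further: PubChem cytochrome P450 panel assay, CYP1A2 panel member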
T1 sequence (P05177 whole entry): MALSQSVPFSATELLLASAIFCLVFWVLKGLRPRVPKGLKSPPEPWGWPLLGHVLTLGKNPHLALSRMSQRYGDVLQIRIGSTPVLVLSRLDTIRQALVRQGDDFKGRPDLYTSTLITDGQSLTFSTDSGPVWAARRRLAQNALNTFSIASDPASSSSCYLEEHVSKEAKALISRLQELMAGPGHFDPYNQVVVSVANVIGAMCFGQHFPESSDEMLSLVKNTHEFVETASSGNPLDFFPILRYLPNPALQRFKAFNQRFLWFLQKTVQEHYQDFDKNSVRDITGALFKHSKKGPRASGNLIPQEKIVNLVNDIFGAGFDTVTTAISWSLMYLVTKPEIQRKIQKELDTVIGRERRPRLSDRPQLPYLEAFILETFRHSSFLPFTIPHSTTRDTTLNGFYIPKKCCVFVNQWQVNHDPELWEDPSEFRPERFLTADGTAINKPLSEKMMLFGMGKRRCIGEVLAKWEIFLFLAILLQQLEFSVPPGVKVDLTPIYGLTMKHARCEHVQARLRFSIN

[3] = target: Cytochrome P450 2C19 (Homo sapiens, UniProt P33261); test: Cytochrome panel assay with activity outcomes. Panel member name: p450-cyp2c19 Compounds with AC50 equal or less than 10 uM are considered active; assay type: functional; details: read-out: AC50
Chain of Cytochrome P450 2C19 (P33261 whole entry): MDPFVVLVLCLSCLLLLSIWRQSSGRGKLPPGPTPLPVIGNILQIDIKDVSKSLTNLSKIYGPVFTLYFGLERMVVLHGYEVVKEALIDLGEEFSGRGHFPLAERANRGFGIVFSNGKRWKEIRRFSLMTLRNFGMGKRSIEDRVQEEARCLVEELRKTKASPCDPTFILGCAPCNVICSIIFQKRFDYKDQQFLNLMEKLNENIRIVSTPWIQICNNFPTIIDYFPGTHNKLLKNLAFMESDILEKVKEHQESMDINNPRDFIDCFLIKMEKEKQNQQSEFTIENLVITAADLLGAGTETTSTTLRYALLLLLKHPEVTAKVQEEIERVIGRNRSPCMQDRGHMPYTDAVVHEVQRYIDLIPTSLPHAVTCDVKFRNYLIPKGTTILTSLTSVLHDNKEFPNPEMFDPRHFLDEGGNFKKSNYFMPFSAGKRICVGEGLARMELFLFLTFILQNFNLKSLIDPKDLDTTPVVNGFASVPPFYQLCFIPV

[4] = target: Cytochrome P450 3A4 (Homo sapiens, UniProt P08684);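 further: CYP3A4 tested as one member of a cytochrome P450 panel screen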
Chain of Cytochrome P450 3A4 (P08684 whole entry): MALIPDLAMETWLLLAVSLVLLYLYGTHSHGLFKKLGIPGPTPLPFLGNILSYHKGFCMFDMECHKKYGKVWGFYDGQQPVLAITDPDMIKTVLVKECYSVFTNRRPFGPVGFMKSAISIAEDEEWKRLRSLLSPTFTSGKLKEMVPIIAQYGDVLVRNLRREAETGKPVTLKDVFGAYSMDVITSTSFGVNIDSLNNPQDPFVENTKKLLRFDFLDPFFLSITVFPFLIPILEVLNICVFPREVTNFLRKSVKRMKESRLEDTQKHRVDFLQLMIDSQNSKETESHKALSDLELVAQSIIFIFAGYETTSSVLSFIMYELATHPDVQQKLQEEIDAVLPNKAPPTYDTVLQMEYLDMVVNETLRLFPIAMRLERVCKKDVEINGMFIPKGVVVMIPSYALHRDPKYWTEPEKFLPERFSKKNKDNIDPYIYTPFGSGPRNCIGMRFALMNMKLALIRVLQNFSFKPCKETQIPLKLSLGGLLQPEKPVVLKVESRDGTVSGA

[5] = target: Cytochrome P450 2C9 (Homo sapiens, UniProt P11712)
Chain of Cytochrome P450 2C9 (P11712 whole entry): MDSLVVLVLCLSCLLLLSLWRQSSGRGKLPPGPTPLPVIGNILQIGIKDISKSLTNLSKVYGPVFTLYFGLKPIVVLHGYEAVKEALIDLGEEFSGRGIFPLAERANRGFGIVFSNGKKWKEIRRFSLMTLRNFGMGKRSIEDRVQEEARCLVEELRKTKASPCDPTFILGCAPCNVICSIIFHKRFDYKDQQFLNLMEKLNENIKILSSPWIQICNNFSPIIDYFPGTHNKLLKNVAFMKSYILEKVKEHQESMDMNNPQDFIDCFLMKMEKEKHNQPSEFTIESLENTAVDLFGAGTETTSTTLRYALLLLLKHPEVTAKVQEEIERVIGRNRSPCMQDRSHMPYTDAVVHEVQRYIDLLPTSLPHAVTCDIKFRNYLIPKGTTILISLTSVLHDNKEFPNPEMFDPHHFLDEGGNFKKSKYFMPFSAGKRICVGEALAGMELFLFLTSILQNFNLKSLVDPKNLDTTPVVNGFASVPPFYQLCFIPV

[6] = insulin promoter down-regulators in MIN6 cells, imaging, high-content screening, mouse beta cells (AID 1628); assay type: functional
[7] = cytotoxicity in MIN6 insulinoma cells, dose response, cytotoxicity control, cell-based, mouse insulinoma (AID 2122); assay type: functional;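 further: confirmatory high-throughput counterscreen run to flag cytotoxic compounds; mouse MIN-6 beta cells carrying an insulin promoter eGFP reporter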
[8] = target: T2, Corticotropin-releasing factor receptor 2/Corticotropin-releasing factor-binding protein (Homo sapiens, UniProt P24387+Q13324); test: activators of CRF receptor 2 with binding protein – uHTS hits, confirmation (AID 602473); assay type: functional; details: read-out: EC50_Mean
T2 sequence (Q13324 whole entry): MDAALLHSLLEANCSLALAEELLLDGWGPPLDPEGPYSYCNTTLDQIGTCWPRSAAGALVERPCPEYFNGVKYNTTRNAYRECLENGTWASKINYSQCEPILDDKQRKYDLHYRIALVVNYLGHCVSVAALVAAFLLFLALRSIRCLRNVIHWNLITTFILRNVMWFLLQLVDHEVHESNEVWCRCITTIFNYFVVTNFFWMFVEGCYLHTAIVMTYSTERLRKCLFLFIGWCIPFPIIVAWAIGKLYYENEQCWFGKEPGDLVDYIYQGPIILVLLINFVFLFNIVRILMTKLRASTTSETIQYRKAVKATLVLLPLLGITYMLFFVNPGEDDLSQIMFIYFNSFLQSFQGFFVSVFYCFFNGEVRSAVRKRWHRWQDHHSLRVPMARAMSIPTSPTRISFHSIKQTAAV
T2 sequence (P24387 whole entry): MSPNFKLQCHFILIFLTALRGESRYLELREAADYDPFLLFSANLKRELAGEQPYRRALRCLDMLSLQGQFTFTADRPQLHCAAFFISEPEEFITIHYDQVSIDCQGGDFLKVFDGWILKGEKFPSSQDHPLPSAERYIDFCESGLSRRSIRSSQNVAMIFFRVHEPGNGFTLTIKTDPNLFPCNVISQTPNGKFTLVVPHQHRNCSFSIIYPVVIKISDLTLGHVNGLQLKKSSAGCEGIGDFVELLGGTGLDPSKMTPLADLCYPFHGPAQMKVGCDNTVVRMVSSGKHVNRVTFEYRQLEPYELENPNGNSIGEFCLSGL

[9] = Shn3 3'UTR reporter inhibitors, dose response, cell-based, Clone20 osteoblasts, firefly luciferase, cherry-picked (AID 624132); assay type: functional;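 further: firefly luciferase luminescence from reporter carrying the Shn3 3'UTR in osteoblasts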
[10] = control 3'UTR Renilla luciferase suppression, dose response, counter-screen for Shn3 inhibitor project, cell-based, Clone20-Shn3RL, cherry-picked (AID 624133); assay type: functional
[11] = HepG2 cell cytotoxicity, dose response, cytotoxicity control for Shn3 inhibitor project, CellTiter-Glo, cherry-picked (AID 624134); assay type: functional, cell-based
[12] = test system: Streptococcus; test: Group A Streptococcus viability loss, dose response, counter-screen for streptokinase expression inhibitor project, luminescence, BacTiterGlo (AID 1915); assay type: functional, organism-based;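 further: potency for reduction of bacterial viability or growth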
[13] = target: DNA dC->dU-editing enzyme APOBEC-3A (Homo sapiens, UniProt P31941); test: Dose Response confirmation of small molecule APOBEC3A DNA Deaminase Inhibitors via a fluorescence-based single-stranded DNA deaminase assay. [Related pubchem assays (depositor defined):AID493011, AID493024]; assay type: functional
Chain of DNA dC->dU-editing enzyme APOBEC-3A (P31941 whole entry): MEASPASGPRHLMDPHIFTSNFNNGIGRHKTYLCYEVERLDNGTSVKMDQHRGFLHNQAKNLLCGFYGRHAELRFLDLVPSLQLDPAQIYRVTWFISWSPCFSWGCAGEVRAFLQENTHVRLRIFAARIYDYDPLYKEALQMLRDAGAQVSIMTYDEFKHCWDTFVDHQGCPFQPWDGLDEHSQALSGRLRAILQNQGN

[14] = target: DNA dC->dU-editing enzyme APOBEC-3G (Homo sapiens, UniProt Q9HC16); assay type: functional;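 further: Dose-response counterscreen measuring inhibition of APOBEC3G DNA deaminase activity, run while confirming APOBEC3A inhibitors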
Chain of DNA dC->dU-editing enzyme APOBEC-3G (Q9HC16 whole entry): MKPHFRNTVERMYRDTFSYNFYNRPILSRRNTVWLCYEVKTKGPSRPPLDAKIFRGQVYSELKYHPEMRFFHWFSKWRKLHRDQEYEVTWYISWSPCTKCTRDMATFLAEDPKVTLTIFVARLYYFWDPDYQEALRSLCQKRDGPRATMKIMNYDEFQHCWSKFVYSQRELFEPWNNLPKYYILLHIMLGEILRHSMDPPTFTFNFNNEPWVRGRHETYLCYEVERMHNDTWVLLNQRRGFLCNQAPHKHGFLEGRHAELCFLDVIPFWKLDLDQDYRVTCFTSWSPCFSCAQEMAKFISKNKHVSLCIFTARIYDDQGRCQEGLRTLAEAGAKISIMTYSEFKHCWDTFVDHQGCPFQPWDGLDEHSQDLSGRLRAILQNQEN

[15] = test system: Streptococcus sp. 'group A'; test: growth inhibition of control SK(-) GAS strain, dose response, counter-screen for streptokinase expression inhibitor project, luminescence, kanamycin, BacTiterGlo, confirmation (AID 1900); assay type: functional, organism-based
[16] = target: T3, Streptokinase A (Streptococcus pyogenes serotype M1, UniProt P10520); test: S. pyogenes streptokinase expression inhibitors, potency, dose response, plasminogen activation absorbance, OD405 (AID 1914); assay type: functional, Streptococcus pyogenes M1 GAS;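 further: secreted streptokinase activity via plasminogen activation per viability signal from cell pellet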
T3 sequence (P10520 whole entry): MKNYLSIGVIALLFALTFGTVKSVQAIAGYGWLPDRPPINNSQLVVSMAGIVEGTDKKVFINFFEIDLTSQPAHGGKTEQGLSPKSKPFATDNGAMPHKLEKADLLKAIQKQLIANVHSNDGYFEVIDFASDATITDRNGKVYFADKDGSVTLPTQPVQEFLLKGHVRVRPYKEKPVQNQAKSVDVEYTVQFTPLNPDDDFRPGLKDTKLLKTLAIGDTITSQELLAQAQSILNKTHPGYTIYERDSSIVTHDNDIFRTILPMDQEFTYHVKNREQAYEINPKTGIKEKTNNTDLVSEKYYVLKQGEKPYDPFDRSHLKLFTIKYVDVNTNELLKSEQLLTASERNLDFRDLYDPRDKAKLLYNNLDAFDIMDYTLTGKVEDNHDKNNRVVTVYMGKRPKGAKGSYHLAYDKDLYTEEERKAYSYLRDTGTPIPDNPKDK

[17] = target: Mu-type opioid receptor (Homo sapiens, UniProt P35372); assay type: functional, cell-based;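 further: U2OS cells with beta-arrestin recruitment to OPRM1 by beta-gal complementation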
Chain of Mu-type opioid receptor (P35372 whole entry): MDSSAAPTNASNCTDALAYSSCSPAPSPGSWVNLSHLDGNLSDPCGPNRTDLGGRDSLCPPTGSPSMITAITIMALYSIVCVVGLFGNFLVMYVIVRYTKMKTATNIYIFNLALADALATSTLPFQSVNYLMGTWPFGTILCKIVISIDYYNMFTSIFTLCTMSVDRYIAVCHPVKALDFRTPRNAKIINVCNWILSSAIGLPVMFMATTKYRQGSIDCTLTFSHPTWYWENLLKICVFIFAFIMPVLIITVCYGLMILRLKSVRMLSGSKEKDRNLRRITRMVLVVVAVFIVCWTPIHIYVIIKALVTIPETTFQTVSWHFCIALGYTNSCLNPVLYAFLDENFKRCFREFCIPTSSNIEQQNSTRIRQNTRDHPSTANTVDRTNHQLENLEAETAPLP

[18] = target: 5-hydroxytryptamine receptor 2A (Mus musculus, UniProt P35363); assay type: functional, cell-based;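 further: CHO-K1 cells with tagged receptor and beta-arrestin; agonist potency measured as compound-induced activation of the receptor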
Chain of 5-hydroxytryptamine receptor 2A (P35363 whole entry): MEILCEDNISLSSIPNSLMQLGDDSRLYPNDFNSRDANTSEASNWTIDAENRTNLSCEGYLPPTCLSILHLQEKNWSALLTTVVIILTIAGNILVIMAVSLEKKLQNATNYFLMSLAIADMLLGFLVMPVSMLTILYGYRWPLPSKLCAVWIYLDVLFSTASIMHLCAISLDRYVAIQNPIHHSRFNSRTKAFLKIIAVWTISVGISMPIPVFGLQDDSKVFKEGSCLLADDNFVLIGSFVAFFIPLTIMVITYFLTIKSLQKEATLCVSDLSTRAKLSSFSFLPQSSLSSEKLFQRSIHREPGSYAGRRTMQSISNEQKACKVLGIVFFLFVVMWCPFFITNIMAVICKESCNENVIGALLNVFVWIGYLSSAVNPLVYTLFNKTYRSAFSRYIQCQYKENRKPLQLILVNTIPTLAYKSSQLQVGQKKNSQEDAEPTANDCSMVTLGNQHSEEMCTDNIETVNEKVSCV

[19] = target: T4, Calpain-2 catalytic subunit (Sus scrofa, UniProt P43367); test: pig calpain II inhibitor potency, dose response, biochemical, fluorogenic peptide substrate (AID 1420); assay type: functional
T4 sequence (P43367 whole entry): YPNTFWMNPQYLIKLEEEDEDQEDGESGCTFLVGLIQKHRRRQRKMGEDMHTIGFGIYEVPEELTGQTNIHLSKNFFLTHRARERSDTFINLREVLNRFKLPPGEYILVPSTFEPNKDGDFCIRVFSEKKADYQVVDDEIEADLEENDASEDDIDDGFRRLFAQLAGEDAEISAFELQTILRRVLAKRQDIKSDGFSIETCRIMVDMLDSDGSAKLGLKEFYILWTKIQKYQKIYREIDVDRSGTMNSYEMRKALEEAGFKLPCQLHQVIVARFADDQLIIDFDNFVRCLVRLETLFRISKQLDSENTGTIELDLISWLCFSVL

[20] = Counterscreen for inhibitors of Trypanosoma brucei methionyl tRNA synthetase (MetRS): Luminescence-based cell-based high throughput dose response assay to identify compounds that are cytotoxic to Jurkat human T lymphocyte cells.; assay type: functional
[21] = target: T5, Methionyl-tRNA synthetase, putative (Trypanosoma brucei brucei, UniProt Q38C91); assay type: functional, Trypanosoma brucei brucei strain 927/4 GUTat10.1
T5 sequence (Q38C91 whole entry): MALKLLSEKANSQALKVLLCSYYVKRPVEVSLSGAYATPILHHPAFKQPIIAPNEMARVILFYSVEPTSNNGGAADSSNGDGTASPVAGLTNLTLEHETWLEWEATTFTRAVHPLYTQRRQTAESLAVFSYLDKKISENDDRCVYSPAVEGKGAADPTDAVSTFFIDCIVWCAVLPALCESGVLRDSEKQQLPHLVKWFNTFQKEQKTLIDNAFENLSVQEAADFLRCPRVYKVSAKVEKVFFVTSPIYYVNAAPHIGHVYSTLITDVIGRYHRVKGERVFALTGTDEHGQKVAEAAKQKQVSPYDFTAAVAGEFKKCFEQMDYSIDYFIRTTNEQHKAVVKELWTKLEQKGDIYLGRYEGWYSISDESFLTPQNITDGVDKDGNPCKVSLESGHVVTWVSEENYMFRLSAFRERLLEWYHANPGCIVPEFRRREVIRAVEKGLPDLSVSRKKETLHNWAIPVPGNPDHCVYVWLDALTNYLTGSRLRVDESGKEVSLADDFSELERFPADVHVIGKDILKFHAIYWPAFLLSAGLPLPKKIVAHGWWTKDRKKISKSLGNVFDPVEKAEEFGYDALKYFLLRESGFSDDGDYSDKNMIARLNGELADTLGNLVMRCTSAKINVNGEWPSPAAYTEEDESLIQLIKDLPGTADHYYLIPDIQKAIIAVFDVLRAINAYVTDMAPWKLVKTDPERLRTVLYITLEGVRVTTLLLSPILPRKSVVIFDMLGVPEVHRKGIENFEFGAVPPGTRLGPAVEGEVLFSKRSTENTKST

## Cc1cc(C(=O)CN2C(=O)c3ccccc3C2=O)c(C)n1Cc1cccs1
[1]
  AC50: 4.41 µM (active)

## CC(C)(C)C(=O)N1CCN(c2ccc([N+](=O)[O-])c(NCC3CCCO3)c2)CC1 (configuration not stated)
[2]
  AC50: 14.1 µM (inconclusive)
[3]
  AC50: 25.1 µM (inconclusive)
[4]
  AC50: inconclusive

## O=[N+]([O-])c1cccnc1N1CCOCC1
[2]
  AC50: 28.2 µM (inconclusive)
[5]
  AC50: 12.6 µM (inconclusive)
[4]
  AC50: inconclusive

## C=CCn1c(-c2ccc(OC)cc2)nc2ccccc21
[6]
  IC50: 4.04 µM (active)
[7]
  IC50: 4.36 µM (active)
[8]
  EC50: > 53 µM (inactive)

## C=CCn1c(NCCc2ccccc2)nc2c1c(=O)n(C)c(=O)n2C
[9]
  AC50: 1.83 µM (active)
[10]
  AC50: 7.83 µM (active)
[6]
  IC50: 2.56 µM (active)
[11]
  AC50: 57.2 µM (active)
[7]
  IC50: 1.86 µM (active)

## CCOC(=O)c1cnc2cc(Cl)c(OC)cc2c1NCC1CCCO1 (configuration not stated)
[6]
  IC50: 2.7 µM (active)
[7]
  IC50: 15 µM (inactive)

## O=C(c1cccc(F)c1)N1CCC2(CC1)CN(c1ccccc1)C2
[4]
  AC50: inconclusive

## O=C(c1cnccn1)N1CCC2(CC1)CN(C(c1ccccc1)c1ccccc1)C2
[2]
  AC50: 25.1 µM (inconclusive)
[4]
  AC50: inconclusive

## O=C(c1ccncc1)N1CCC2(CC1)CN(C(c1ccccc1)c1ccccc1)C2
[2]
  AC50: 15.8 µM (inconclusive)
[4]
  AC50: inconclusive

## CC(=O)c1cccc(OC(=O)c2ccc3c(=O)n4c(nc3c2)CCC4)c1
[12]
  EC50: 14.4 µM (active)
[13]
  IC50: 6.27 µM (active)
[14]
  IC50: 5.35 µM (active)
[15]
  EC50: 12.6 µM (active)
[16]
  EC50: > 150 µM (not active)

## CCC(c1nnnn1-c1ccc2c(c1)OCCO2)N1CCN(C/C=C/c2ccccc2)CC1 (configuration not stated)
[17]
  EC50: 92.6 µM (inactive)
[18]
  EC50: 76.2 µM (inactive)

## CO/N=C(\c1nonc1N)N1CCN(c2ccc(Cl)cc2[N+](=O)[O-])CC1
[19]
  IC50: > 50 µM (not active)
[20]
  IC50: 83.3 µM (inactive)
[21]
  IC50: 119 µM (inactive)
